Assay results reported in patent publication US4220644A, “7-Acylamino-3-(substituted tetrazolyl thiomethyl) cephalosporins” (SmithKline Corporation, priority 1976, dated 1980).
Values after ≈ are worked out from the molar mass of the structure shown. Read-outs that look alike come from different tables or passages of the source.

Tests used:
[1] = tested on: Shigella HH 117; assay: MIC in vitro (Table 1), Shigella HH 117; assay type: cell-based; conditions: Shigella, HH117, in vitro, read-out: MIC
Description: (§1) The compounds of Formula I have antibacterial activity against both Gram-positive and Gram-negative organisms. […] Compound names corresponding to numbers are given in the experimental section. For comparative purposes, data for cephamandole, which is 7-mandelamido-3-(1-methyltetrazol-5-ylthiomethyl)-3-cephem-4-carboxylic acid, is also given in Tables 1 and 2.

[2] = tested on: E. coli SK 12140; assay: MIC in vitro (Table 1), E. coli SK 12140; assay type: cell-based; conditions: Escherichia coli, SK12140, in vitro
Description: (§2) Compound names corresponding to numbers are given in the experimental section. For comparative purposes, data for cephamandole, which is 7-mandelamido-3-(1-methyltetrazol-5-ylthiomethyl)-3-cephem-4-carboxylic acid, is also given in Tables 1 and 2.

[3] = tested on: Entero. cloacae HH 31254; assay: MIC in vitro (Table 1), Entero. cloacae HH 31254; assay type: cell-based; conditions: Enterobacter cloacae
Description: as §2

[4] = tested on: Kleb. pneumo. 4200; assay: In vivo mouse protection (Table 2), Kleb. pneumo. 4200
Description: as §2

[5] = tested on: S. aureus HH 127; assay: MIC in vitro (Table 1), S. aureus HH 127; assay type: cell-based; conditions: Staphylococcus aureus
Description: as §2

[6] = tested on: E. coli HH 33779; assay: MIC in vitro (Table 1), E. coli HH 33779; assay type: cell-based; conditions: Escherichia coli
Description: as §2

[7] = tested on: E. coli 12140; assay: In vivo mouse protection (Table 2), E. coli 12140
Description: as §2

[8] = tested on: Salmonella ATCC 12176; assay: MIC in vitro (Table 1), Salmonella ATCC 12176; assay type: cell-based
Description: as §1

[9] = tested on: Kleb. pneumo. SK 1200; assay: MIC in vitro (Table 1), Kleb. pneumo. SK 1200; assay type: cell-based
Description: as §2

[10] = tested on: S. aureus SK 23390; assay: MIC in vitro (Table 1), S. aureus SK 23390; assay type: cell-based; conditions: Staphylococcus aureus
Description: as §2

[11] = tested on: Proteus morgani 179; assay: MIC in vitro (Table 1), Proteus morgani 179; assay type: cell-based; conditions: read-out: MIC
Description: as §2

[12] = tested on: Pseudo. sp. HH 63; assay: MIC in vitro (Table 1), Pseudo. sp. HH 63; assay type: cell-based; conditions: in vitro, Pseudo. sp. HH 63; read-out: MIC
Description: as §1

[13] = tested on: Strep. Faecalis HH 34358; assay: MIC in vitro (Table 1), Strep. Faecalis HH 34358; assay type: cell-based; conditions: Enterococcus faecalis
Description: as §2

[14] = tested on: Kleb. pneumo. SK 4200; assay: MIC in vitro (Table 1), Kleb. pneumo. SK 4200; assay type: cell-based
Description: as §2

[15] = tested on: Entero. aerog. ATCC 13048; assay: MIC in vitro (Table 1), Entero. aerog. ATCC 13048; assay type: cell-based
Description: as §2

[16] = tested on: Serra. Marc. ATCC 13880; assay: MIC in vitro (Table 1), Serra. Marc. ATCC 13880; assay type: cell-based
Description: as §2

[17] = Escherichia coli, 12140, po, E. coli 12140, p.o.
[18] = Escherichia coli, 12140, sc, E. coli 12140, s.c.
[19] = Salmonella, ATCC12176, in vitro, read-out: MIC
[20] = SK23390, in vitro, S. aureus SK 23390, read-out: MIC
[21] = in vitro, Strep. Faecalis HH 34358, read-out: MIC
[22] = HH31254, in vitro, Entero. cloacae HH 31254, read-out: MIC
[23] = HH33779, in vitro, E. coli HH 33779, read-out: MIC
[24] = in vitro, Kleb. pneumo. SK 4200, read-out: MIC
[25] = in vitro, Entero. aerog. ATCC 13048, read-out: MIC
[26] = HH127, in vitro, S. aureus HH 127, read-out: MIC

Row | Compound | MIC [1] [µg/mL] | MIC ([3]; HH31254) [µg/mL] | ED50 ([4]; sc, Kleb. pneumo. 4200, s.c.) [mg/kg] | MIC ([5]; HH127) [µg/mL] | ED50 [7, 17] [mg/kg] | ED50 [7, 18] [mg/kg] | MIC [8, 19] [µg/mL] | MIC ([9]; read-out: MIC) [µg/mL] | MIC [10, 20] [µg/mL] | MIC [11] [µg/mL] | MIC [12] [µg/mL] | MIC [13, 21] [µg/mL] | MIC [14] [µg/mL] | MIC ([2]; read-out: MIC) [µg/mL] | MIC [3, 22] [µg/mL] | MIC [15] [µg/mL] | MIC [16] [µg/mL] | MIC [6, 23] [µg/mL] | MIC ([10]; SK23390) [µg/mL] | MIC [5, 26] [µg/mL] | further results
1 | NC(=O)CCn1nnnc1SCC1=C(C(=O)O)N2C(=O)C(NC(=O)[C@H](N)c3ccc(O)cc3)[C@H]2SC1 (stereo partly drawn) [X, 7-(D-α-Amino-4-hydroxyphenylacetamido)-3-[1-(2-carbamoylethyl)tetrazol-5-ylthiomethyl]-3-cephem-4-carboxylic acid] | 1.6 (≈ 2.99 µM) | 1.6 (≈ 2.99 µM) | 0.62 | 6.3 (≈ 11.8 µM) | 25 | 0.78 | 0.8 (≈ 1.5 µM) | 3.1 (≈ 5.8 µM) | 12.5 (≈ 23.4 µM) | 25 (≈ 46.8 µM) | > 200 | 25 (≈ 46.8 µM) | 1.6 (≈ 2.99 µM) |  |  |  |  |  |  |  | MIC [2]: 1.6 µg/mL (≈ 2.99 µM); ED50 ([4]; po, Kleb. pneumo. 4200, p.o.): 15.6 mg/kg; MIC ([6]; HH33779): 1.6 µg/mL (≈ 2.99 µM)
2 | O=C(O)CCCn1nnnc1SCC1=C(C(=O)O)N2C(=O)C(NC(=O)[C@H](O)c3ccccc3)[C@H]2SC1 (stereo partly drawn) [XII, 7-D-Mandelamido-3-[1-(3-carboxypropyl)tetrazol-5-ylthiomethyl]-3-cephem-4-carboxylic acid] | 0.4 (≈ 0.748 µM) |  | 2.9 | 3.1 (≈ 5.8 µM) | > 50 | 1.84 | 0.4 (≈ 0.748 µM) | 0.8 (≈ 1.5 µM) |  |  | > 200 |  |  | 1.6 (≈ 2.99 µM) | 0.8 (≈ 1.5 µM) | 3.1 (≈ 5.8 µM) | 12.5 (≈ 23.4 µM) | 1.6 (≈ 2.99 µM) | 0.4 (≈ 0.748 µM) |  | MIC ([8]; in vitro): 0.8 µg/mL (≈ 1.5 µM); MIC [9]: 1.6 µg/mL (≈ 2.99 µM); MIC [13]: 12.5 µg/mL (≈ 23.4 µM); MIC [14, 24]: 1.6 µg/mL (≈ 2.99 µM)
3 | O=C(O)CCCCCn1nnnc1SCC1=C(C(=O)O)N2C(=O)C(NC(=O)[C@H](O)c3ccccc3)[C@H]2SC1 (stereo partly drawn) [XIII, 7-D-Mandelamido-3-[1-(5-carboxypentyl)tetrazol-5-ylthiomethyl]-3-cephem-4-carboxylic acid] | 0.8 (≈ 1.42 µM) | 0.8 (≈ 1.42 µM) | 0.54 |  |  | 1.56 | 1.6 (≈ 2.84 µM) | 1.6 (≈ 2.84 µM) |  | 1.6 (≈ 2.84 µM) | > 200 | 25 (≈ 44.4 µM) | 0.8 (≈ 1.42 µM) | 1.6 (≈ 2.84 µM) |  |  |  | 3.1 (≈ 5.51 µM) | 0.8 (≈ 1.42 µM) | 3.1 (≈ 5.51 µM) | MIC [15, 25]: 6.3 µg/mL (≈ 11.2 µM)
4 | NC(=O)CCCCCn1nnnc1SCC1=C(C(=O)O)N2C(=O)C(NC(=O)[C@H](O)c3ccccc3)[C@H]2SC1 (stereo partly drawn) [XIV, 7-D-Mandelamido-3-[1-(5-carbamoylpentyl)tetrazol-5-ylthiomethyl]-3-cephem-4-carboxylic acid] | 0.8 (≈ 1.42 µM) |  | 1.1 |  |  | 1.1 | 3.1 (≈ 5.52 µM) | 3.1 (≈ 5.52 µM) |  |  | > 200 |  |  | 3.1 (≈ 5.52 µM) | 1.6 (≈ 2.85 µM) |  | 25 (≈ 44.5 µM) | 3.1 (≈ 5.52 µM) | 0.4 (≈ 0.712 µM) | 1.6 (≈ 2.85 µM) | MIC [15, 25]: 6.3 µg/mL (≈ 11.2 µM); MIC [13]: 12.5 µg/mL (≈ 22.3 µM); MIC [14, 24]: 1.6 µg/mL (≈ 2.85 µM)
5 | NC(=O)CCCn1nnnc1SCC1=C(C(=O)O)N2C(=O)C(NC(=O)CSC(F)(F)F)[C@H]2SC1 (stereo partly shown) [XX, 7-Trifluoromethylmercaptoacetamido-3-[1-(3-carbamoylpropyl)tetrazol-5-ylthiomethyl]-3-cephem-4-carboxylic acid] | 0.2 (≈ 0.369 µM) |  |  |  | 21.5 | 0.7 | 0.2 (≈ 0.369 µM) |  | 0.2 (≈ 0.369 µM) | 12.5 (≈ 23.1 µM) | > 200 | 6.3 (≈ 11.6 µM) | 0.4 (≈ 0.739 µM) | 0.8 (≈ 1.48 µM) | 0.8 (≈ 1.48 µM) | 3.1 (≈ 5.72 µM) |  | 0.8 (≈ 1.48 µM) |  | 0.4 (≈ 0.739 µM) | MIC [9]: 0.4 µg/mL (≈ 0.739 µM)
